This passage reports pKMCS results from US5869449A, “38-decarboxy-38-hydroxymethyl derivatives of teiocoplanin antibiotics and a process for preparing them” (Gruppo Lepetit S.P.A., priority 1990, dated 1999).

A short description of the series: Acid-base titration (pK MCS). It is filed as physicochemical. The settings on record: methyl cellosolve (MCS) H2O 4/1, excess 0.01M HCl, titrated with 0.01N NaOH; one basic ionizable function.

Regarding “38-Decarboxy-38-hydroxymethyl of teicoplanin pseudoaglycon 1 [Example 2]”, the pKMCS stood at 6.9.
“38-Decarboxy-38-hydroxymethyl of teicoplanin pseudoaglycon 2 [Example 3]”: the pKMCS amounted to 6.8.
